Assay: Oral bioavailability of γ-hydroxybutyric acid from the prodrug
Conditions: in a patient, oral administration

## CC(C)[C@H](N)C(=O)OCCCC(=O)O [compound (1), 4-((L-Valyl)oxy)butanoic acid]
  oral bioavailability of γ-hydroxybutyric acid: greater than 60 % F

Source: US12396956B2, “Modified release compositions of a gamma-hydroxybutyric acid derivative” (XWPHARMA LTD., priority 2020, dated 2025)
